Data taken from US20130190289A1, “COMPOUNDS AND METHODS FOR THE TREATMENT OR PREVENTION OF FLAVIVIRUS INFECTIONS” (priority 2010, published 2013).
Like-named read-outs stand apart in the source and are kept apart here.

Key:
[1] = test system: HCV replicon (genotype 1b) in Huh7 cell line ET; assay: microbe, parasite or virus in culture; type: cell-based, HCV genotype 1b; conditions: Hepatitis C virus
[2] = [3H]Thymidine incorporation assay (cell toxicity); conditions: human
[3] = Huh-7, read-out: HCV-Replicon-(Luci-ET) 1b_IC50
[4] = Huh-7, 96 h, read-out: HCV-Replicon (Luci-ET)-1b_IC50

Row | SMILES | IC50 [1, 3] [µM] | CC50 at 72 h [2] [µM] | IC50 [1, 4] [µM]
1 | CC[C@@H](C(=O)N(C)C1CCOCC1)N(c1cc(C#CC(C)(C)C)sc1C(=O)O)C(=O)[C@H]1CC[C@H](C)CC1 [Compound 81, 5-(3,3-Dimethylbut-1-ynyl)-3-[(trans-4-methylcyclohexanecarbonyl)-[(1S)-1-[methyl(tetrahydropyran-4-yl)carbamoyl]propyl]amino]thiophene-2-carboxylic acid] | < 0.1 | 10 to 100 | 
2 | COC1CCN(C(=O)CN(c2cc(C#CC(C)(C)C)sc2C(=O)O)C(=O)[C@H]2CC[C@H](C)CC2)CC1 [Compound 44] | < 0.1 | > 100 | 
3 | CC[C@@H](C(=O)N(C)CC1CCOC1)N(c1cc(C#CC(C)(C)C)sc1C(=O)O)C(=O)[C@H]1CC[C@H](C)CC1 (stereo partly drawn) [Compound 80, 5-(3,3-Dimethylbut-1-ynyl)-3-[(trans-4-methylcyclohexanecarbonyl)-[(1S)-1-[methyl(tetrahydrofuran-3-ylmethyl)carbamoyl]propyl]amino]thiophene-2-carboxylic acid] | < 0.1 | > 100 | 
4 | CCNC(=O)C[C@H](C)N(c1cc(C#CC(C)(C)C)sc1C(=O)O)C(=O)[C@H]1CC[C@H](C)CC1 [Compound 111, 5-(3,3-Dimethylbut-1-ynyl)-3-[[(1S)-3-(ethylamino)-1-methyl-3-oxo-propyl]-(trans-4-methylcyclohexanecarbonyl)amino]thiophene-2-carboxylic acid] | < 0.1 | > 100 | 
5 | COCCN1CCC[C@H](N(c2cc(C#CC(C)(C)C)sc2C(=O)O)C(=O)[C@H]2CC[C@H](C)CC2)C1=O [Compound 150, (S)-5-(3,3-Dimethylbut-1-ynyl)-3-((trans)-4-methyl-N-(1-(2-methoxyethyl)-2-oxopiperidin-3-yl)cyclohexanecarboxamido)thiophene-2-carboxylic acid] |  | > 100 | < 0.1
6 | COC[C@@H](C(=O)N1CCCC1)N(C(=O)C1CCCCC1)c1cc(C#CC(C)(C)C)sc1C(=O)O [Compound 36, 3-[Cyclohexanecarbonyl-[(1S)-1-(methoxymethyl)-2-oxo-2-pyrrolidin-1-yl-ethyl]amino]-5-(3,3-dimethylbut-1-ynyl)thiophene-2-carboxylic acid] | 0.1 to 1 | > 100 | 
7 | CO[C@H](C)[C@H](C(=O)N1CCOCC1)N(c1cc(C#CC(C)(C)C)sc1C(=O)O)C(=O)[C@H]1CC[C@H](C)CC1 [Compound 74, 5-(3,3-dimethylbut-1-ynyl)-3-[[(1R,2R)-2-methoxy-1-(morpholine-4-carbonyl)propyl]-(trans-4-methylcyclohexanecarbonyl)amino]thiophene-2-carboxylic acid] | < 0.1 | > 100 | 
8 | CC(C)(C)C#Cc1cc(N(CC(=O)N2CCOCC2)C(=O)c2ccc(Cl)cc2)c(C(=O)O)s1 [Compound 123, 3-[(4-chlorobenzoyl)-(2-morpholino-2-oxo-ethyl)amino]-5-(3,3-dimethylbut-1-ynyl)thiophene-2-carboxylic acid] |  | > 100 | < 0.1
9 | CCC1CCC(C(=O)N(c2cc(C#CC(C)(C)C)sc2C(=O)O)[C@@H](COC)C(=O)N2CCCC2)CC1 (stereo partly drawn) [Compound 63, 5-(3,3-Dimethylbut-1-ynyl)-3-[(4-ethylcyclohexanecarbonyl)-[(1S)-1-(methoxymethyl)-2-oxo-2-pyrrolidin-1-yl-ethyl]amino]thiophene-2-carb oxylic acid] | 0.1 to 1 | 10 to 100 | 
10 | COC[C@@H](C(=O)N1CCOCC1)N(C(=O)C1CCCCC1)c1cc(C#CC(C)(C)C)sc1C(=O)O [Compound 24, 3-[Cyclohexanecarbonyl-[(1S)-1-(methoxymethyl)-2-morpholino-2-oxo-ethyl]amino]-5-(3,3-dimethylbut-1-ynyl)thiophene-2-carboxylic acid] | < 0.1 | > 100 | 
